Data published in EP1105728B1, “MODULATING MULTIPLE LINEAGE KINASE PROTEINS” (CEPHALON, INC., priority 1998, dated 2000).
Where two headings read alike, the source gives them in different places.

What was measured:
[1] = target: T1, MLK-3 (Homo sapiens, UniProt Q16584); assay: JNK activity (immunoprecipitation/kinase assay) in Cos7 cells overexpressing MLK-3 and HA-JNK1; format: cell-based; conditions: COS-7
T1 construct: A full length cDNA of human MLK-3, MLK-2, or mouse DLK; expressed in transfected cells; host or cells: Cos7
T1 sequence (Q16584 whole entry): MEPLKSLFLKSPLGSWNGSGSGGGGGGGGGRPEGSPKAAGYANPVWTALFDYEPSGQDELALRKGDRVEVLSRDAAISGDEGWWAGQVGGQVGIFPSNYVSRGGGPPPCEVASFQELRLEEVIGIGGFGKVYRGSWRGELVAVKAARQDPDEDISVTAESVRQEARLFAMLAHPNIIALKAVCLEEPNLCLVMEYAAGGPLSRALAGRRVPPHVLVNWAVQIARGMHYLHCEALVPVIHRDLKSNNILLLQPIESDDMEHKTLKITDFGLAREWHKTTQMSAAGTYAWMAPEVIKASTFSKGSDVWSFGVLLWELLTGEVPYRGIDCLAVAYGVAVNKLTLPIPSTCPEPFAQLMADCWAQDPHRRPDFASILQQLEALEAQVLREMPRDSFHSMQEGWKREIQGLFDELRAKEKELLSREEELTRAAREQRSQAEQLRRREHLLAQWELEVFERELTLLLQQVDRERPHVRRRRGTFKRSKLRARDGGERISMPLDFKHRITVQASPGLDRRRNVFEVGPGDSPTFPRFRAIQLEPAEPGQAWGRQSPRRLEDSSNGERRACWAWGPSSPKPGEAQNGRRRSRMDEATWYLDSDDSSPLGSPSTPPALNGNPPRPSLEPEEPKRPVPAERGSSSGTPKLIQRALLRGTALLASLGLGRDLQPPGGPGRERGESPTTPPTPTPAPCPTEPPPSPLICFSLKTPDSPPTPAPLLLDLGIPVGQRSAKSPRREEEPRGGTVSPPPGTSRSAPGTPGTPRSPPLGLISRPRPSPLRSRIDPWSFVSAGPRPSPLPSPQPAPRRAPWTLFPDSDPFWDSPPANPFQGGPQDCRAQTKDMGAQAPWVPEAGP
Experimental: Cos7 cells were plated at 80% confluency and transfected with 2 ug each of cDNA constructs using lipofectamine as recommended by the provider (Gibco BRL, Gaithersburg, MD). A full length cDNA of human MLK-3, MLK-2, or mouse DLK or a partial human MLK-1 as described above, and a full length Hemagluttinin A-tagged human JNK1, kindly provided by J. Silvio Gutkind (NIH, Bethesda, MD), were subcloned into the pcDNA3 vector (Invitrogen, San Diego, CA). […] JNK activity from the lysate was assayed by an immunoprecipitation/kinase assay as described below.
Lysate from Cos 7 cells was measured for protein concentration using the Micro BCA kit from Pierce (Rockford, IL) and equal amounts of protein were immunoprecipitated with the HA antibody for 1 hr at 4°C. Immunoprecipitates were pelleted by centrifugation in a microfuge centrifuge for 20 sec, resuspended in Triton buffer, washed by centrifugation 2 more times, followed by a final wash in Kinase buffer (20 mM Hepes pH 7.4,20 mM MgCl2, 2 mM dithiothreitol, 0.1 mM sodium vanadate). The immunoprecipitate was resuspended in kinase buffer containing 1 µM ATP and 5 µCi [γ-^32P]ATP and substrate (1 µg/sample of AP-1 ) and incubated for 15 min at 30°C. […] Samples were heated to 80°C for 5 min and loaded onto 10% SDS-polyacrylamide gels. Proteins were separated by electrophoresis. The gel was dried and quantitation of radioactivity in the AP-1 substrate was performed on a Molecular Dynamics Phosphorimager (Sunnyvale, Ca.).
To determine whether inhibition of the JNK pathway regulated by these kinases correlated with neurotrophic compounds, we evaluated the effect of compounds on JNK activity in Cos7 cells overexpressing HA-JNK and MLK3. After a 48 hr transfection period, the cells were incubated with compounds at 500 nM for 2hr followed by cellular lysis. Lysate was immunoprecipitated and kinase activity measured as previously described. […]

[2] = test system: ciliary ganglion (CG) neurons; assay: Survival of chick embryonic ciliary ganglion neurons; format: cell-based
Experimental: Paravertebral sympathetic ganglia (SG; embryonal day 12 (E12)), dorsal root ganglia (DRG;E9), and ciliary ganglia (CG;E8) were dissected from chick embryos at the indicated embryonic day as described in Lindsay, et al., Dev. Biol., 1985, 112, 319-328, which is incorporated herein by reference in its entirety. After trypsinization and dissociation, the nerve cell suspensions were plated onto polyomithine-laminin-coated culture dishes in Ham's F14 culture medium, supplemented with 10% horse serum. Immediately after plating, survival factors were added at the following concentrations: Nerve growth factor (NGF), 20 ng/ml; ciliary neutrophic factor (CNTF), 10 ng/ml. The cultures were maintained at 37° and 5% CO2 in a humidified environment.
Neurons were plated in 35 mm culture dishes with grids (Nunc). […] Cell survival was confirmed by vital staining with trypan blue (not shown).

CCSCc1ccc2c(c1)c1c3c(c4c5cc(CSCC)ccc5n5c4c1n2C1CC(O)(C(=O)OC)C5(C)O1)CNC3=O (centres unmarked) [III-3]
inhibition at 0.5 µM ([1]; 500 nM for 2hr, control is JNK activity in the presence of DMSO, read-out: % Inhibition of JNK Activity (average) MLK3 in Cos7 cells): 94%
inhibition at 0.5 µM ([1]; read-out: Overexpressed MLK3 in Cos 7 Cells JNK % inh. 500 nM): 94%
concentration at which the survival effect reached a plateau ([2]; 10% serum (Fig. 16)): around 1 µM
survival of CNTF-dependent ciliary ganglion (CG) neurons ([2]; after 24 h, CNTF 10 ng/ml, 10% serum): 76%
CG survival ([2]; after four days): 58%
